Among the data in US10752640B2, “Compounds active towards bromodomains” (NUEVOLUTION A/S, priority 2014, dated 2020) are IC50 values, retold here.

pIC50: −log10 of the molar value. A value given as a limit tells only on which side of the number the result lay.

The first assay addresses BRD4 protein (Homo sapiens, UniProt O60885). The assay is described as follows: FRET assay, half maximal inhibitory concentration (IC50). The format is binding. The conditions noted are these: BRD4 protein 50 nM, Biotin-H4KAc4 peptide 12.5 nM; A Further List of Classification. The essentials: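 Acetylated histone H4 peptide binding (biotin-H4KAc4, 12.5 nM final) to BRD4 (50 nM final) detected by TR-FRET between streptavidin cryptate (2.4 nM) and GST-XL665 antibody (10 nM) in KF/BSA. Buffer: HEPES pH 7.5, NaCl, CHAPS. Compound dilutions from 50 μM in 12.5% DMSO were preincubated with protein for 30 min. Variable-slope IC50.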
As to `CN1C(=O)CCc2cc(NC(=O)c3ccccc3N3CCOCC3)ccc21` [S1, N-(1-methyl-2-oxo-3,4-dihydroquinolin-6-yl)-2-morpholino-benzamide], the pIC50 – broadly, the IC50 on a negative log10 scale, so that one unit is a factor of ten – was 5.00 to 6.00. In turn, `Cc1cc(O)nc2ccc(NC(=O)c3ccccc3N3CCOCC3)cc12` [S2, N-(2-hydroxy-4-methyl-6-quinolyl)-2-morpholino-benzamide] showed a negative logarithm of the IC50 (pIC50) of 6.30 to 6.70.

With `Cc1ccc(C(=O)Nc2ccc3c(c2)CCC(=O)N3C)cc1S(=O)(=O)NC1CCCC1` [S3, 3-(cyclopentylsulfamoyl)-4-methyl-N-(1-methyl-2-oxo-3,4-dihydroquinolin-6-yl)benzamide], the pIC50 was 5.00 to 6.00.

Consider `CN1C(=O)CCc2cc(NC(=O)c3cccnc3N3CCOCC3)ccc21` [S4, N-(1-methyl-2-oxo-3,4-dihydroquinolin-6-yl)-2-morpholino-pyridine-3-carboxamide], for which the negative logarithm of the IC50 (pIC50) is 5.00 to 6.00. The compound `CN1CCN(c2ccccc2C(=O)Nc2ccc3c(c2)OCC(=O)N3)CC1` [S5, 2-(4-methylpiperazin-1-yl)-N-(3-oxo-4H-1,4-benzoxazin-7-yl)benzamide] gave a negative-log IC50 (pIC50) below 5.00.

The assay is the same for the next values; noted with them: BRD4 protein 50 nM, Biotin-H4KAc4 peptide 12.5 nM; List of Classification.
The compound `Cc1cc(O)nc2ccc(NC(=O)c3cc(-c4cnn(C)c4)cnc3N3CCOCC3)cc12` [Compound-175, N-(2-hydroxy-4-methylquinolin-6-yl)-5-(1-methyl-1H-pyrazol-4-yl)-2-morpholinonicotinamide] gave a negative logarithm of the IC50 (pIC50) above 6.70. `Cc1cc(O)nc2ccc(NC(=O)c3cc(-c4cnoc4)cnc3N3CCOCC3)cc12` [Compound-176, N-(2-hydroxy-4-methylquinolin-6-yl)-5-(isoxazol-4-yl)-2-morpholinonicotinamide] gave a negative-log IC50 (pIC50) above 6.70. Take `Cc1noc(C)c1-c1cnc(N2CCOCC2)c(C(=O)Nc2ccc3nc(O)cc(C)c3c2)c1` [Compound-177, 5-(3,5-dimethylisoxazol-4-yl)-N-(2-hydroxy-4-methylquinolin-6-yl)-2-morpholinonicotinamide]: the negative-log IC50 (pIC50) is above 6.70. Consider `Cc1cc(O)nc2ccc(NC(=O)c3cc(-c4ccoc4)cnc3N3CC4(COC4)C3)cc12` [Compound-178, 5-(furan-3-yl)-N-(2-hydroxy-4-methylquinolin-6-yl)-2-(2-oxa-6-azaspiro[3.3]heptan-6-yl)nicotinamide], for which the pIC50 was 6.00 to 6.30. Take `Cc1cc(O)nc2c(C)cc(NC(=O)c3cc(-c4ccoc4)cnc3N3CCOCC3)cc12` [Compound-179, 5-(furan-3-yl)-N-(2-hydroxy-4,8-dimethylquinolin-6-yl)-2-morpholinonicotinamide]: the negative logarithm of the IC50 (pIC50) was above 6.70. `Cc1nnc(-c2ccc(N3CCOCC3)c(C(=O)Nc3ccc4nc(O)cc(C)c4c3)c2)o1` [Compound-180, N-(2-hydroxy-4-methylquinolin-6-yl)-5-(5-methyl-1,3,4-oxadiazol-2-yl)-2-morpholinobenzamide] gave a negative logarithm of the IC50 (pIC50) above 6.70. `Cc1cc(O)nc2ccc(NC(=O)c3cc(-c4nnn[nH]4)ccc3N3CCOCC3)cc12` [Compound-181, N-(2-hydroxy-4-methylquinolin-6-yl)-2-morpholino-5-(1H-tetrazol-5-yl)benzamide] had a negative-log IC50 (pIC50) above 6.70. On to `Cc1cc(O)nc2ccc(NC(=O)c3cc(C(=O)O)ccc3N3CCOCC3)cc12` [Compound-182, 3-(2-hydroxy-4-methylquinolin-6-ylcarbamoyl)-4-morpholinobenzoic acid], for which the pIC50 is above 6.70. `Cc1cc(O)nc2ccc(NC(=O)c3cc(C#N)cnc3N3CCOCC3)cc12` [Compound-183, 5-cyano-N-(2-hydroxy-4-methylquinolin-6-yl)-2-morpholinonicotinamide] showed a pIC50 of 6.00 to 6.30. Compound `Cc1cc(O)nc2ccc(NC(=O)c3cc(Br)cnc3N3CCC(F)C3)cc12` (stereo not shown) [Compound-184, 5-bromo-2-(3-fluoropyrrolidin-1-yl)-N-(2-hydroxy-4-methylquinolin-6-yl) nicotinamide] had a negative logarithm of the IC50 (pIC50) of 6.00 to 6.30. Take `Cc1cc(O)nc2ccc(NC(=O)c3cc(N4CCN(C)CC4)cnc3N3CCOCC3)cc12` [Compound-185, N-(2-hydroxy-4-methylquinolin-6-yl)-5-(4-methylpiperazin-1-yl)-2-morpholinonicotinamide]: the negative-log IC50 (pIC50) was above 6.70.

Compound `Cc1cc(O)nc2ccc(NC(=O)c3cc(N4CCOCC4)cnc3N3CCOCC3)cc12` [Compound-186, N-(2-hydroxy-4-methylquinolin-6-yl)-2,5-dimorpholinonicotinamide] showed a negative logarithm of the IC50 (pIC50) above 6.70. For the compound `Cc1cc2nc(O)cc(C)c2cc1NC(=O)c1cc(-c2c(C)noc2C)cnc1N1CCOCC1` [Compound-188, 5-(3,5-dimethylisoxazol-4-yl)-N-(2-hydroxy-4,7-dimethylquinolin-6-yl)-2-morpholinonicotinamide], the pIC50 was above 6.70. As to `COc1cc(NC(=O)c2cc(-c3ccoc3)cnc2N2CCOCC2)cc2c(C)cc(O)nc12` [Compound-189, 5-(furan-3-yl)-N-(2-hydroxy-8-methoxy-4-methylquinolin-6-yl)-2-morpholinonicotinamide], the negative logarithm of the IC50 (pIC50) is above 6.70. With `COc1cc2nc(O)cc(C)c2cc1NC(=O)c1cc(-c2ccoc2)cnc1N1CCOCC1` [Compound-190, 5-(furan-3-yl)-N-(2-hydroxy-7-methoxy-4-methylquinolin-6-yl)-2-morpholinonicotinamide], the pIC50 is 5.00 to 6.00. The compound `Cc1cc2nc(O)cc(C)c2cc1NC(=O)c1cc(-c2ccoc2)cnc1N1CCOCC1` [Compound-191, 5-(furan-3-yl)-N-(2-hydroxy-4,7-dimethylquinolin-6-yl)-2-morpholinonicotinamide] showed a pIC50 above 6.70. In turn, `Cc1cc2nc(O)cc(C)c2cc1NC(=O)c1cc(-c2nnn(C)n2)cnc1N1CCOCC1` [Compound-195, N-(2-hydroxy-4,7-dimethylquinolin-6-yl)-5-(2-methyl-2H-tetrazol-5-yl)-2-morpholinonicotinamide] gave a pIC50 above 6.70.

Consider `Cc1cc2nc(O)cc(C)c2cc1NC(=O)c1cc(-c2nnnn2C)cnc1N1CCOCC1` [Compound-196, N-(2-hydroxy-4,7-dimethylquinolin-6-yl)-5-(1-methyl-1H-tetrazol-5-yl)-2-morpholinonicotinamide], for which the negative-log IC50 (pIC50) was below 5.00. Same read-out and setting: the result for `Cc1cc(O)nc2ccc(NC(=O)c3cc(C#N)ncc3N3CCC(F)C3)cc12` (stereo not shown) [Compound-197, 2-cyano-5-(3-fluoropyrrolidin-1-yl)-N-(2-hydroxy-4-methylquinolin-6-yl) isonicotinamide] reads 6.00 to 6.30. `Cc1cc(O)nc2ccc(NC(=O)c3cc(S(=O)(=O)N(C)C)cnc3N3CCC(F)C3)cc12` (stereo not shown) [Compound-199, 5-(N,N-dimethylsulfamoyl)-2-(3-fluoropyrrolidin-1-yl)-N-(2-hydroxy-4-methylquinolin-6-yl)nicotinamide] showed a negative-log IC50 (pIC50) above 6.70. Same read-out and setting: then `Cc1cc(-c2cnc(N3CCOCC3)c(C(=O)Nc3cc4c(C)cc(O)nc4cc3C)c2)on1` [Compound-200, N-(2-hydroxy-4,7-dimethylquinolin-6-yl)-5-(3-methylisoxazol-5-yl)-2-morpholinonicotinamide], with 6.30 to 6.70; and `COc1cc2nc(O)cc(C)c2cc1NC(=O)c1cc(-c2nnc(C)o2)ccc1N1CCOCC1` [Compound-201, N-(2-hydroxy-7-methoxy-4-methylquinolin-6-yl)-5-(5-methyl-1,3,4-oxadiazol-2-yl)-2-morpholinobenzamide], with above 6.70.

Compound `Cc1cc(O)nc2ccc(NC(=O)c3cc(C(N)=O)ncc3N3CCCC3)cc12` [Compound-202, N4-(2-hydroxy-4-methylquinolin-6-yl)-5-(pyrrolidin-1-yl)pyridine-2,4-dicarboxamide] showed a pIC50 above 6.70. `Cc1cc(O)nc2ccc(NC(=O)c3cc(-c4nnn[nH]4)ncc3N3CCCC3)cc12` [Compound-203, N-(2-hydroxy-4-methylquinolin-6-yl)-5-(pyrrolidin-1-yl)-2-(1H-tetrazol-5-yl) isonicotinamide] gave a pIC50 above 6.70.

Take `Cc1cc(O)nc2ccc(NC(=O)c3cc(C(C)O)ccc3N3CCCC3c3ccccn3)cc12` (stereo not shown) [Compound-206, N-(2-hydroxy-4-methylquinolin-6-yl)-5-(1-hydroxyethyl)-2-(2-(pyridin-2-yl)pyrrolidin-1-yl)benzamide]: the negative-log IC50 (pIC50) is above 6.70.

Turning to `CC(=O)c1cc(C(=O)Nc2ccc3nc(O)cc(C)c3c2)c(N2CCOCC2)cn1` [Compound-207, 2-acetyl-N-(2-hydroxy-4-methylquinolin-6-yl)-5-morpholinoisonicotinamide], the pIC50 was above 6.70. As for `Cc1cc(O)nc2ccc(NC(=O)c3cc(C(C)O)ncc3N3CCOCC3)cc12` (stereo not shown) [Compound-208, N-(2-hydroxy-4-methylquinolin-6-yl)-2-(1-hydroxyethyl)-5-morpholinoisonicotinamide], the pIC50 is above 6.70. Same read-out and setting: then `CC(=O)c1cc(C(=O)Nc2ccc3nc(O)cc(C)c3c2)c(N2CCC(F)C2)cn1` (stereo not shown) [Compound-209], with above 6.70; and `Cc1cc(O)nc2ccc(NC(=O)c3cc(C(C)O)ncc3N3CCC(F)C3)cc12` (stereo not shown) [Compound-210, 5-(3-fluoropyrrolidin-1-yl)-N-(2-hydroxy-4-methylquinolin-6-yl)-2-(1-hydroxyethyl) isonicotinamide], with above 6.70; and `Cc1cc(O)nc2ccc(NC(=O)c3cc(C#N)ncc3N3CCCC3CN(C)C)cc12` (stereo not shown) [Compound-211], with 6.30 to 6.70. `CC(=O)c1cc(C(=O)Nc2ccc3nc(O)cc(C)c3c2)c(N2CCCC2CN(C)C)cn1` (stereo not shown) [Compound-212, 2-acetyl-5-(2-((dimethylamino)methyl)pyrrolidin-1-yl)-N-(2-hydroxy-4-methylquinolin-6-yl)isonicotinamide] showed a pIC50 above 6.70. `Cc1cc(O)nc2ccc(NC(=O)c3cc(C(C)O)ncc3N3CCCC3CN(C)C)cc12` (stereo not shown) [Compound-213, 5-(2-((dimethylamino)methyl)pyrrolidin-1-yl)-N-(2-hydroxy-4-methylquinolin-6-yl)-2-(1-hydroxyethyl)isonicotinamide] gave a pIC50 above 6.70.
